Patent publication US10125135B2, “Chemical compounds” (AstraZeneca AB, priority 2016, dated 2018)
In brackets after ≈: the same amount, converted by molar mass.

Columns and labels:
[1] = Human hepatocyte assay (metabolic stability); assay type: in vitro ADME; conditions: human hepatocytes, 37° C., 1.0×10^6 viable cells/mL; read-out: Clint (in vitro intrinsic clearance)
Description: The metabolic stability of compounds in human hepatocytes was assessed using the following protocol: • 1. Prepare 10 mM stock solutions of compound and control compounds in appropriate solvent (DMSO). Place incubation medium (L-15Medium) in a 37° C. water bath, and allow warming for at least 15 minutes prior to use. • 2. Add 80 μL of acetonitrile to each well of the 96-well deep well plate (quenching plate). • 3. In a new 96-well plate, dilute the 10 mM test compounds and the control compounds to 100 μM by combining 198 μL of acetonitrile and 2 μL of 10 mM stock. • 4. Remove a vial of cryopreserved (less than −150° C.) human hepatocytes (LiverPool™ 10 Donor Human hepatocytes obtained from Celsis IVT. Chicago, Ill. (Product No. S01205)) from storage, ensuring that vials remain at cryogenic temperatures until thawing process ensues. As quickly as possible, thaw the cells by placing the vial in a 37° C. water bath and gently shaking the vials. Vials should remain in water bath until all ice crystals have dissolved and are no longer visible. After thawing is completed, spray vial with 70% ethanol, transfer the vial to a bio-safety cabinet. • 5. Open the vial and pour the contents into the 50 mL conical tube containing thawing medium. Place the 50 mL conical tube into a centrifuge and spin at 100 g for 10 minutes. […] Using Cellometer® Vision, count cells and determine the viable cell density. Cells with poor viability (<80% viability) are not acceptable for use. Dilute cells with incubation medium to a working cell density of 1.0×10^6 viable cells/mL. • 7. Transfer 247.5 μL of hepatocytes into each well of a 96-well cell culture plate. Place the plate on Eppendorf Thermomixer Comfort plate shaker to allow the hepatocytes to warm for 10 minutes. • 8. Add 2.5 μL of 100 μM test compound or control compounds into an incubation well containing cells, mix to achieve a homogenous suspension at 0.5 min, which when achieved, will define the 0.5 min time point. At the 0.5 min time, transfer 20 μL incubated mixture to wells in a “Quenching plate” followed by vortexing. • 9. Incubate the plate at 37° C. at 900 rpm on an Eppendorf Thermomixer Comfort plate shaker. At 5, 15, 30, 45, 60, 80, 100 and 120 min, mix the incubation system and transfer samples of 20 μL incubated mixture at each time point to wells in a separate “Quenching plate” followed by vortexing. • 10. Centrifuge the quenching plates for 20 minutes at 4,000 rpm. 4 different compounds are pooled into one cassette and used for LC/MS/MS analysis.
All calculations are carried out using Microsoft Excel. Peak areas are determined from extracted ion chromatograms. In vitro intrinsic clearance (in vitro Clint, in μL/min/10^6 cells) of parent compound is determined by regression analysis of the Ln percent parent disappearance vs. time curve. The in vitro intrinsic clearance (in vitro Clint, in μL/min/10^6 cells) is determined from the slope value using the following equation and is shown in Table C:
V=incubation volume (0.25 mL);
N=number of hepatocytes per well (0.25×10 ^6 cells).

[2] = target: ERα receptor in MCF-7 human ductal carcinoma breast cell line (Homo sapiens (Human), UniProt P03372); experiment: MCF-7 ER down regulation assay (immuno-fluorescence); assay type: cell-based; conditions: MCF-7 cells; for DC50: 18-22 hours incubation, read-out: ER down regulation IC50 value
Description: MCF-7 ER Down Regulation Assay
The ability of compounds to down-regulate Estrogen Receptor (ER) numbers was assessed in a cell based immuno-fluorescence assay using the MCF-7 human ductal carcinoma breast cell line. MCF-7 cells were revived directly from a cryovial (approx 5×10^6 cells) in Assay Medium (phenol red free Dulbecco's Modified Eagle's medium (DMEM) (Sigma D5921) containing 2mM L-Glutamine and 5% (v/v) Charcoal/Dextran treated foetal calf serum. Cells were syringed once using a sterile 18 G×1.5 inch (1.2×40 mm) broad gauge needle and cell density was measured using a Coulter Counter (Beckman). Cells were further diluted in Assay Medium to a density of 3.75×10^4 cells per mL and 40 μL per well added to transparent bottomed, black, tissue culture treated 384 well plates (Costar, No. 3712) using a Thermo Scientific Matrix WellMate or Thermo Multidrop. Following cell seeding, plates were incubated overnight at 37° C., 5% CO2 (Liconic carousel incubator). Test data was generated using the LabCyte Echo™ model 555 compound reformatter which is part of an automated workcell (Integrated Echo 2 workcell). 10 mM compound stock solutions of the test compounds were used to generate a 384 well compound dosing plate (Labcyte P-05525-CV1). […] 40 μΛ of DMSO added to wells in row P on the source plate allow for DMSO normalisation across the dose range. To dose the control wells 40 μL of DMSO was added to row O1 and 40 μL of 100 μM fulvestrant in DMSO was added to row O3 on the compound source plate. […] Compounds were dispensed onto the cell plates with a compound source plate prepared as above producing a 12 pt duplicate 3 μM to 3 pM dose range with 3 fold dilutions and one final 10 fold dilution using the Integrated Echo 2 workcell. […] Cells were fixed at room temperature for 20 mins before being washed two times with 250 μL PBS/Proclin (PBS with a Biocide preservative) using a BioTek platewasher, 40 μL of PBS/Proclin was then added to all wells and the plates stored at 4° C. The fixing method described above was carried out on the Integrated Echo 2 workcell. Immunostaining was performed using an automated AutoElisa workcell. The PBS/Proclin was aspirated from all wells and the cells permeabilised with 40 μL PBS containing 0.5% Tween™ 20 (v/v) for 1 hour at room temperature. The plates were washed three times in 250 μL of PBS/0.05% (v/v) Tween 20 with Proclin (PBST with a Biocide preservative) and then 20 μL of ERα (SP1) Rabbit monoclonal antibody (Thermofisher) 1:1000 in PBS/Tween™/3% (w/v) Bovine Serum Albumin was added. The plates were incubated overnight at 4° C. (Liconic carousel incubator) and then washed three times in 250 μL of PBS/0.05% (v/v) Tween™ 20 with Proclin (PBST). The plates were then incubated with 20 μL/well of a goat anti-rabbit IgG AlexaFluor 594 or goat anti-rabbit AlexaFluor 488 antibody (Molecular Probes) with Hoechst at 1:5000 in PBS/Tween™/3% (w/v) Bovine Serum Albumin for lhour at room temperature. The plates were then washed three times in 250 μL of PBS/0.05% (v/v) Tween™ 20 with Proclin (PBST with a Biocide preservative). 20 μL of PBS was added to each well and the plates covered with a black plate seal and stored at 4° C. before being read. Plates were read using a Cellomics Arrayscan reading the 594 nm (24 hr time point) or 488 nm (5 hr timepoint) fluorescence to measure the ERα receptor level in each well. The mean total intensity was normalized for cell number giving the total intensity per cell.

[3] = logD shake flask, 1-octanol/aqueous buffer; assay type: physicochemical; conditions: pH 7.4
Description: The lipophilicity of a drug is an important physical property which may influence many biological and metabolic properties of a compound. The distribution coefficient between 1-octanol and aqueous buffer, Log DO/W, at pH 7.4, is the most commonly used measurement of the lipophilicity of a compound. The current method for measurement of Log DO/W is based on the traditional shake flask technique, but with the modification of measuring compounds in mixtures of ten at a time using UPLC with quantitative mass spectrometry (MS) as a method to measure the relative octanol and aqueous concentrations. […] An additional QC sample Caffeine, with low Log D, are used and randomly placed in all runs. The method has been thoroughly validated against the previous shake flask methodologies.

[4] = Thermodynamic solubility, shake-flask; assay type: physicochemical; conditions: thermodynamic from solid; aqueous phosphate buffer pH 7.4, 24 hours at 25° C.
Description: The thermodynamic solubility of a research compound is measured under standard conditions. It is a shake-flask approach that uses 10 mM DMSO solutions which are supplied from the Compound Managements liquid store and is a high throughput method. The dried compounds are equilibrated in an aqueous phosphate buffer (pH 7.4) for 24 hours at 25° C., the portion with the dissolved compound is then separated from the remains. The solutions are analyzed and quantified using UPLC/MS/MS, QC-samples are incorporated in each assay-run to ensure the quality of the assay.

[5] = Human plasma protein binding, equilibrium dialysis (RED); assay type: in vitro ADME; conditions: dialysis for 18 hours
Description: Human Plasma Protein Binding
The automated equilibrium dialysis assay in human plasma uses the RED (Rapid Equilibrium Dialysis) Device and sample handling. The assay generally runs over two to three days including delivery of results. After dialysis for 18 hours, plasma and buffer samples are prepared for analysis by liquid chromatography and mass spectrometry. Samples are generally tested in singlicates and quantified by LC/MSMS by using a 7-point calibration curve in plasma. The compounds are pooled together in plasma pools up to 10 compounds. Three reference compounds are used in each run, Propranolol, Metoprolol and Warfarin. Warfarin is used as a control in each pool and Propranolol and Metoprolol are placed randomly in each run. An in-house Excel macro is used for preparation of files for the robot and the mass spectrometer and also used for the calculations of fraction unbound (fu %) in plasma.

Sequence of ERα receptor in MCF-7 human ductal carcinoma breast cell line (P03372 whole entry): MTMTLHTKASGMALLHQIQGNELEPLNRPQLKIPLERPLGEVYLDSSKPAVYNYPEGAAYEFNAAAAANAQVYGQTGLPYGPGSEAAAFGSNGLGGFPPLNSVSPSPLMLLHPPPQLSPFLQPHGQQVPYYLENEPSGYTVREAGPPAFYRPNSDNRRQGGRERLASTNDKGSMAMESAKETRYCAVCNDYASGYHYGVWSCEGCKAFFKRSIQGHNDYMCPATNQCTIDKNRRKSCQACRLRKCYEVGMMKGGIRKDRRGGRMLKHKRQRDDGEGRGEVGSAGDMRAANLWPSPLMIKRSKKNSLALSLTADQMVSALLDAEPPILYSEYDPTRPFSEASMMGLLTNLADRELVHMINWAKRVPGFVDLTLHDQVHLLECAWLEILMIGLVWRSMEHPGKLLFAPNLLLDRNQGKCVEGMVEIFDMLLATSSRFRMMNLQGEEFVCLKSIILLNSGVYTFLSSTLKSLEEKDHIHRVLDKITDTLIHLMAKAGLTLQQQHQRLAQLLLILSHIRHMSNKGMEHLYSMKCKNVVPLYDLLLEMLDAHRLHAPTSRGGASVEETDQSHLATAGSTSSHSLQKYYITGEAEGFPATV

| DC50 [2] [nM] | % downregulation (in brackets) in ER down regulation assay ([2]; >90% unless otherwise stated) [%] | logD [3] | solubility at 24 h [4] [µM] | Human plasma protein binding (% free) [5] [% free] | Structure (SMILES) | hepatocyte CLint at 1 µM [1] [µL/min/1e6 cells] |
| --- | --- | --- | --- | --- | --- | --- |
| 0.076 |  |  |  |  | C[C@@H]1Cc2c(ccc3[nH]ncc23)[C@@](C)(c2ccc(OCCN3CC(CF)C3)cc2)N1CC1(F)COC1 [Example 32, (6R,8R)-6-(4-(2-(3-(fluoromethyl)azetidin-1-yl)ethoxy)phenyl)-7-((3-fluorooxetan-3-yl)methyl)-6,8-dimethyl-6,7,8,9-tetrahydro-3H-pyrazolo[4,3-f]isoquinoline] | 29 |
| 0.26 |  |  |  |  | C[C@@H]1Cc2c(ccc3[nH]ncc23)[C@@H](c2c(F)cc(OCCN3CC(C(F)F)C3)cc2F)N1CC(C)(C)F [Example 38, (6S,8R)-6-(4-(2-(3-(difluoromethyl)azetidin-1-yl)ethoxy)-2,6-difluorophenyl)-7-(2-fluoro-2-methylpropyl)-8-methyl-6,7,8,9-tetrahydro-3H-pyrazolo[4,3-f]isoquinoline] | 15 |
| 0.28 | 86 |  |  |  | C[C@@H]1Cc2c(ccc3[nH]ncc23)[C@@H](c2c(F)cc(NCCN3CC(CF)C3)cc2F)N1CC(C)(C)F [Example 47, 3,5-difluoro-4-((6S,8R)-7-(2-fluoro-2-methylpropyl)-8-methyl-6,7,8,9-tetrahydro-3H-pyrazolo[4,3-f]isoquinolin-6-yl)-N-(2-(3-(fluoromethyl)azetidin-1-yl)ethyl)aniline] | 8 |
| 0.5 |  | 2.8 | 1000 (≈ 495 µg/mL) | 20 | C[C@@H]1Cc2c(ccc3[nH]ncc23)[C@@H](c2ncc(OCCN3CC(CF)C3)cc2F)N1CC(F)(F)F [Example 50, (6S,8R)-6-(3-fluoro-5-(2-(3-(fluoromethyl)azetidin-1-yl)ethoxy)pyridin-2-yl)-8-methyl-7-(2,2,2-trifluoroethyl)-6,7,8,9-tetrahydro-3H-pyrazolo[4,3-f]isoquinoline] |  |

| Structure (SMILES) | DC50 [2] [nM] | % downregulation (in brackets) in ER down regulation assay ([2]; >90% unless otherwise stated) [%] | logD [3] | solubility at 24 h [4] [µM] | Human plasma protein binding (% free) [5] [% free] | hepatocyte CLint at 1 µM [1] [µL/min/1e6 cells] |
| --- | --- | --- | --- | --- | --- | --- |
| CC(C)CN1[C@H](c2c(F)cc(OCCN3CC(CF)C3)cc2F)c2ccc3[nH]ncc3c2C[C@H]1C [Example 33, (6S,8R)-6-(2,6-difluoro-4-(2-(3-(fluoromethyl)azetidin-1-yl)ethoxy)phenyl)-7-isobutyl-8-methyl-6,7,8,9-tetrahydro-3H-pyrazolo[4,3-f]isoquinoline] | 0.21 |  |  |  |  | 9 |
| CC(C)CN1[C@H](c2ccc(OCCN3CC(CF)C3)cn2)c2ccc3[nH]ncc3c2C[C@H]1C [Example 40, (6S,8R)-6-(5-(2-(3-(fluoromethyl)azetidin-1-yl)ethoxy)pyridin-2-yl)-7-isobutyl-8-methyl-6,7,8,9-tetrahydro-3H-pyrazolo[4,3-f]isoquinoline] | 0.36 |  |  |  |  | 8 |
